Literature values in patent US20110160463A1, “PROCESS FOR MAKING SUBSTITUTED 2-AMINO-THIAZOLONES” (Amgen Inc., priority 2008, published 2011).

Key:
11βHSD1 [1] = molecular target: T1, 11βHSD1 (Homo sapiens, UniProt P28845); conditions: ingestion, normal subjects
T1 construct: reduce the intraocular pressure by 20% in normal subjects; host or cells: endogenous enzyme in living subjects (eye)
T1 sequence (P28845 whole entry): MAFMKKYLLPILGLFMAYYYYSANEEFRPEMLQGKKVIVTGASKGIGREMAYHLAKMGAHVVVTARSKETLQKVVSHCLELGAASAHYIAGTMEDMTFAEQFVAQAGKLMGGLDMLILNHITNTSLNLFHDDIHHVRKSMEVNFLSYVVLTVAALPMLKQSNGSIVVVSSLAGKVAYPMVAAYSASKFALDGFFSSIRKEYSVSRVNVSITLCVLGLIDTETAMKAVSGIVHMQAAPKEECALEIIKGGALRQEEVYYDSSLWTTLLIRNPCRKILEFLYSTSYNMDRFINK

11βHSD1 [2] = molecular target: T2, 11βHSD1 (Homo sapiens, UniProt P28845); conditions: healthy human volunteers
T2 construct: Hepatic insulin sensitivity was improved in healthy human volunteers; host or cells: endogenous enzyme in human volunteers (liver)
T2 sequence (P28845 whole entry): as above

**Q.** What does the source list for `CC1(C)[C@@H](OC(=O)CCC(=O)O)CC[C@]2(C)[C@H]3C(=O)C=C4[C@@H]5C[C@@](C)(C(=O)O)CC[C@]5(C)CC[C@@]4(C)[C@]3(C)CC[C@@H]12` [carbenoxolone]?
**A.** reduction of the intraocular pressure (11βHSD1 [1]): 20%; hepatic insulin sensitivity (11βHSD1 [2]): improved; negative effect (of glucocorticoids) on bone nodule formation (bone nodule formation): blocked
